From patent publication US12077607B2, “Functional and therapeutic effects of PAR4 cleavage by cathepsin G” (UNIVERSITY OF UTAH RESEARCH FOUNDATION, priority 2021, dated 2024)
Entries after “also recorded” stand apart in the source; their conditions may differ.

Experiments:
PAR4-B (SEQ ID NO: 7) = molecular target: T1, PAR4-B (SEQ ID NO: 7) (Homo sapiens, UniProt Q96RI0); assay: PAR4 peptide cleavage analysis by LC-MS/MS, PAR4-B; assay type: biochemical; conditions: thrombin 100 U/mL or 100 nM, CatG 400 nM, 37° C.
T1 construct: purchased BIOMATIK (Wilmington, DE, USA); host or cells: chemical synthesis
T1 sequence (Q96RI0 36-58 limits assumed): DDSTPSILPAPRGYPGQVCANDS
Protocol: PAR-4 Peptide and Cleavage Analysis. PAR4 synthetic peptides were incubated with protease, snapped frozen, and sent for mass spectrometry analysis. PAR-4B ([…]; SEQ ID NO: 7) and PAR-4C ([…]; SEQ ID NO: 8) were synthesized by BIOMATIK (Wilmington, DE, USA). PAR4-B and PAR4-C were incubated with vehicle, thrombin (100 nM) or cathepsin G (400 nM) at 37° C. for 15 minutes to an hour depending on the experimental condition. After digestion with the indicated protease, reactions were snapped frozen and sent to the University of Arizona, Analytical and Biological Mass Spectrometry Core Facility (Tucson, Arizona) for analysis. LC-MS/MS analysis was done on a Q Exactive Plus mass spectrometer (Thermo Fisher Scientific, San Jose, CA) equipped with an EASY-Spray nanoESI source. Peptides (500 ng) were injected onto an Acclaim Pepmap 100 trap column (75 micron ID x 2 cm, Thermo Scientific), washed for 10 min at 3% mobile phase B (acetonitrile, 0.1% formic acid, mobile phase A consisting of water and 0.1% formic acid) then eluted onto an Acclaim PepMap RSLC analytical column (75 micron ID x 25 cm, Thermo Scientific using a 3-20% gradient of B over 40 min, 20-50% solvent B over 5 min, 50-95% of solvent B over 5 min, then a hold of solvent 95% B for 10 min, and finally a return to 3% solvent B for 1 min, then a hold at 3% B for 10 min. Flow rates were 300 nL/min using a Dionex Ultimate 3000 RSLCnano System (Thermo Scientific). […] The peptide identification results were further analyzed with Scaffold Q+S v 4.8.7 (Proteome Software Inc., Portland OR), a program that relies on various search engine results (i.e.: Sequest, X!Tandem, MASCOT) and which uses Bayesian statistics to reliably identify more spectra9.

dog washed platelets = assay: Platelet aggregation of dog washed platelets; assay type: cell-based; conditions: 1 U/mL human thrombin, 1 μM human CatG or 1 mM RA-11mer
Description: Animal studies. Mouse platelets were isolated as previously described from C57BL/6 mice (Denorme et al., Blood. 2020; 135(6):429-440). Dog platelets were isolated from whole blood drawn into ACD using a similar isolation procedure as for human platelets. All animal studies were approved by the University of Utah Institutional Animal Care and Use Committee (18-10012).
Platelet and neutrophil isolation. Platelets and neutrophils were isolated as previously described (Yost et al., J Clin Invest. 2016; 126(10):3783-3798). Platelet isolation from dogs, rats and mice was approved by the IACUC. Platelet activation and aggregation were performed as previously described (Manne et al., Blood. 2020; 136(11): 1317-1329).
Platelet isolation, aggregation, and activation. Human washed platelets were prepared and resuspended in Tyrode's Buffer at 2×10^8/mL as described (Edelstein et al., Nat Med. 2013; 19(12):1609-1616). For human and dog platelet comparisons, platelets were prepared using a modified human platelet protocol with final concentrations of […] (Cayman Chemical, Ann Arbor, MI, USA) used during centrifugation steps. Centrifugations after Tyrode's washes was decreased to 1,250×g as described in Cremer et al., PLOS One. 2019; 14(11): e0224891. Platelet aggregation was measured under stirring conditions at 37° C. using a PAP-8E aggregometer after treatment with the following agonists: arachidonic acid (Bio/Data Corporation, Horsham, PA, USA), cathepsin G, elastase, proteinase 3 (Athens Research Group), α-thrombin (Sigma, St. Louis, MO, USA), PAR-1 peptide (SFLLRN) (GL Biochem, China). P-selectin and PAC-1 were measured as previously described (Yee et al., J Thromb Haemost. 2006; 4(9):2043-2050; Tourdot et al., Arterioscler Thromb Vasc Biol. 2014; 34(12):2644-2650).

Q: Which results are given for “CatG: serine protease cathepsin G released by activated neutrophils”?
A: cleavage of PAR4-B peptide (PAR4-B (SEQ ID NO: 7)): largely intact; also recorded: little cleavage; platelet aggregation, species comparison: dogs (dog washed platelets): induced platelet aggregation; also recorded: not as responsive

Q: Which “cleavage of PAR4-B peptide” value (PAR4-B (SEQ ID NO: 7)) does the source give for thrombin here?
A: cleaved by thrombin between amino acids Arg47 and Gly48

Q: What about the “cleavage of PAR4-B peptide” value (PAR4-B (SEQ ID NO: 7); listed as Thrombin) of the same substance?
A: proteolyzed virtually all

Q: What about the “platelet aggregation, species comparison: dogs” value (dog washed platelets) of the same substance?
A: induced platelet aggregation
